Assay results: paper PMC6385087, “New Multitarget Hybrids Bearing Tacrine and Phenylbenzothiazole Motifs as Potential Drug Candidates for Alzheimer’s Disease” (Molecules, 2019)

Legend:
SH-SY5Y cells = test: Dose-response screening for non-toxic concentration, MTT reduction; format: cell-based; conditions: dose-response screening from 0.2 μM to 5 μM, 25 h
Procedure: The neuroprotective effect of TAC-PhBTA conjugates was evaluated using SH-SY5Y cells treated with Aβ1–42 peptides or ascorbate/iron. For each compound, a dose-response curve was performed to select a non-toxic concentration in order to analyze its neuroprotective effect (Figure 3).
SH-SY5Y human neuroblastoma cell line (ATCC-CRL-2266) grown in Dulbecco’s modified Eagle’s medium (DMEM) obtained from Gibco-Invitrogen (Life Technologies Ltd., Liverpool, UK) with 10% heat inactivated fetal calf serum, containing 50 U/mL penicillin, and 50 μg/mL streptomycin, under a humidified atmosphere of 95% air-5% CO2 at 37 °C. Cells were plated at 0.12 × 10^6 cells/mL for cell viability assay. […]. As a result we selected a 2.5 μM final concentration for compound 16; 0.5 μM final concentration for compound 17; 0.2 μM final concentration for compounds 14 and 15; and a 1 μM final concentration for compounds 19 and 18. […] The compounds were added to the cell media 1 h before the incubation with Aβ1–42 or ferrous sulfate/L-ascorbic acid. Aβ1–42 or ferrous sulfate/L-ascorbic acid where incubated alone or with the compound for an additional 24 h. Aβ1–42 was prepared as 276.9 μM stock in sterile water and added to the medium at 1 μM final concentration. Ferrous sulfate was freshly prepared as 0.36 M stock in water and added to the medium at 500 μM final concentration. L-Ascorbic Acid was freshly prepared as 80 mM stock in water and added to the medium at 5 mM final concentration. Aβ1–42 was purchased from Bachem (Torrance, CA, USA) and ferrous sulfate and L-ascorbic acid from Sigma Chemical Co (St. Louis, MO, USA).
Cell viability was determined by a MTT (3-(4,5-dimethylthiazol-2-yl)-2,5-diphenyltetrazolium bromide) reduction test. In viable cells, the enzyme succinate dehydrogenase metabolizes MTT into formazan that absorbs light at 570 nm. Following the cell treatment protocol the medium was aspirated and 0.5 mL MTT (0.5 mg/mL) was added to each well. The plate was then incubated at 37 °C for 1 h 30 min protected from light. At the end of the incubation period the formazan precipitates were solubilized with 0.5 mL of acidic isopropanol (0.04 M HCl/isopropanol). The absorbance was measured at 570 nm. Cell reduction ability was expressed as a percentage of untreated control cells.

AChE from electric eel = biological target: T1, AChE from electric eel (Electrophorus electricus, UniProt O42275); test: biochemical; conditions: means of two experiments, read-out: Inhibition of AChE (IC50)
T1 construct: commercially available enzyme AChE 500 U (extracted from electrophorus electricus); purchased type VI-S; host or cells: extracted from electric eel
Procedure: The analytical grade reagents were purchased from Sigma-Aldrich (St. Louis, MO, USA) and Acros (Thermo Fisher Scientific, Geel, Belgium) and were used without any further purification. The organic solvents were dried and distilled according to standard methods described in literature. […] The Proton and Carbon-13 NMR were recorded either on Bruker AVANCE III-300 (300 MHz and 75.5 MHz) or Bruker AVANCE III-400 (400 MHz and 100.5 MHz) NMR spectrometers (Billerica, MA, USA) at 25 °C using peaks of solvents as internal standard. The chemical shift values of protons or carbons were measured on a δ scale and the coupling constant values (J) were determined in Hertz. In the NMR representation, abbreviations are mentioned as: singlet represented by s, doublet represented by d, triplet represented by t, multiplet represented by m, double doublet represented by dd, and broad singlet represented by brs. The Leica Galen III hot stage apparatus (Leica Microsystems, Wetzlar, Germany) was used for measuring the melting points of compounds. […] The AChE inhibitory activity was measured in a 1 cm path length quartz cell through a Perkin Elmer Lambda 35 spectrophotometer equipped with a temperature programmer PTP1+1 Peltier System (T = 25.0 ± 0.1 °C) (Waltham, MA, USA). Electrospray ionization-mass (ESI-MS) measurements were carried out on a LCQ Fleet mass spectrometer (Thermo Scientific, S. Jose, CA, USA) operated in the ESI positive and negative ion modes.
Modified Ellman’s method was used as described previously for the determination of AChE activity. The AChE stock solution was prepared by dissolving commercially available enzyme AChE 500 U (extracted from electrophorus electricus) in 10 mL of TRIS buffer (50 mM, pH 8). HEPES buffer was used for the dilution of the enzyme to give the final AChE concentration. The assay solution consisted of 374 μL of 4-(2-hydroxyethyl)-1-piperazineethanesulfonic acid (Hepes) buffer (50 mM, pH 8.0), 476 μL of 3 mM bis(3-carboxy-4-nitrophenyl)disulfide (DTNB), 25 μL of AChE (type VI-S, from electric eel) stock solution, a variable volume (10–50 μL) of the compound’s stock solution (1 mg/mL of MeOH), and the necessary amount of methanol to attain the same volume of sample mixture (0.925 mL) in a 1 mL cuvette. Samples were left to react for 15 min and then the reaction was monitored at wavelength of 405 nm for 5 min, after adding 75 μL of 16 mM acetylthiocholine iodide (AChI) solution. Assays were run with a blank containing all the components except AChE, which was replaced by HEPES buffer. The velocities of the reaction were calculated as well as the enzyme activity. A control reaction was carried out using the sample solvent (methanol) in the absence of any tested compound, and it was considered as 100% activity. […] The inhibition curves were obtained by plotting the percentage of enzymatic inhibition versus inhibitor concentration and a calibration curve was obtained from which the linear regression parameters were calculated.

T1 sequence (O42275 24-633): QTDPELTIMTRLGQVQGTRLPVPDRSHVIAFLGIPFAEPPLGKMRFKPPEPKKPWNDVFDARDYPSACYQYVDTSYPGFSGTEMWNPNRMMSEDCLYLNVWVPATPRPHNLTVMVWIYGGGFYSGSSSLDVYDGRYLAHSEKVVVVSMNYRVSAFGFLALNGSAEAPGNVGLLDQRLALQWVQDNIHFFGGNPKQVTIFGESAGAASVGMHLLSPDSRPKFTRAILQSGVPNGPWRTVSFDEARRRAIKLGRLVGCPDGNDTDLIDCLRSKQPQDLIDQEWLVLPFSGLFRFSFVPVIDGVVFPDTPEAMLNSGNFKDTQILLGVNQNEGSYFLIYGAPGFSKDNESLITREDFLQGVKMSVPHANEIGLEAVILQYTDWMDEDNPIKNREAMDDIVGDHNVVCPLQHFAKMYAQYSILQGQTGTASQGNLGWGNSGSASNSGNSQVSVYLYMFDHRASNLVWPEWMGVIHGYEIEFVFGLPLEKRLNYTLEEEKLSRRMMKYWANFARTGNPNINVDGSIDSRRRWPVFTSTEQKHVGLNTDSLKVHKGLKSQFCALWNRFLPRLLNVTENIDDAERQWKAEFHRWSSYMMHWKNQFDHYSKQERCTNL

| SMILES | Highest non-toxic concentration selected (SH-SY5Y cells) | IC50 (AChE from electric eel) |
| --- | --- | --- |
| COc1cc(-c2nc3ccccc3s2)ccc1OCC(=O)NCCNc1c2c(nc3cc(Cl)ccc13)CCCC2 [compound 15, 2-(4-(Benzo[d]thiazol-2-yl)-2-methoxyphenoxy)-N-(2-((6-chloro-1,2,3,4 tetrahydroacridin-9-yl)amino)ethyl)acetamide] | 0.2 µM | 60 nM |
| COc1cc(-c2nc3ccccc3s2)ccc1OCC(=O)NCC(O)CNc1c2c(nc3cc(Cl)ccc13)CCCC2 (stereo not drawn) [compound 19, 2-(4-(Benzo[d]thiazol-2-yl)-2-methoxyphenoxy)-N-(3-((6-chloro-1,2,3,4-tetrahydroacridin-9-yl)amino)-2-hydroxypropyl)acetamide] | 1 µM | 140 nM |
| COc1cc(-c2nc3ccccc3s2)ccc1OCC(=O)NCCCNc1c2c(nc3ccccc13)CCCC2 [compound 16, 2-(4-(Benzo[d]thiazol-2-yl)-2-methoxyphenoxy)-N-(3-((1,2,3,4-tetrahydroacridin-9-yl)amino)propyl)acetamide] | 2.5 µM | 150 nM |
